# Measured values taken from publication PMC10486604 (Cancers, 2023).
# pIC50: −log10 of the molar value. Like-named read-outs stand apart in the source and are kept apart here.
# How the values were obtained:
# [1] = In vivo pharmacokinetics in 786-O tumor-bearing mice; settings: female, NMRI nu/nu, mouse, iv, 4 mg/kg
# Description: Plasma and tumor samples were collected and frozen at <−15 °C until sample analysis. Samples were analyzed for concentrations of respective SMDCs and the released payload 1 by LC/MS/MS. […] All pharmacokinetic parameters were calculated by non-compartmental methods.
# human NE = biological target: T1, human NE (Homo sapiens, UniProt P08246); test: Human NE biochemical cleavage assay; settings: read-out: Km (cleavage to payload 1)
# T1 sequence (P08246 30-267): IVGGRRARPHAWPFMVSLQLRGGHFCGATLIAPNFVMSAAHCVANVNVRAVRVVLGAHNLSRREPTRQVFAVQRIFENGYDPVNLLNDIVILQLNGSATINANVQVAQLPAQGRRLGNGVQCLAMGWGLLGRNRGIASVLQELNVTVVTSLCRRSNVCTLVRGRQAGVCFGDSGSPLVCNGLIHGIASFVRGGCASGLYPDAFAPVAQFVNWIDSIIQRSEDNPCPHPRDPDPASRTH
# Description: Then, 125 μL of pre-heated buffer (100 mM Tris pH 7.5, 150 mM NaCl, 10 mM CaCl2, and 0.05% BSA) was added to each incubation. The reaction was started by adding 0.5 or 1 nM activated mouse elastase (according to manufacturer’s protocol) or human NE to the reaction vials. A negative control without elastase was run under the same conditions. The reaction was stopped at 0, 4.5, 8, and 12 min by the addition of acidified acetonitrile/0.2% formic acid. Camptothecin was used as internal standard for the LC/MS/MS analysis.
# LXFL529 = test: PDX model LXFL529 (NSCLC), subcutaneous; type: in vivo, mouse; settings: across PDX models
# Description: Studies were conducted according to all applicable international, national, and local laws and followed the national guidelines for the Care and Use of Laboratory Animals of the Society of Laboratory Animal Science (GV-SOLAS). All animal experiment protocols were approved by the Regional Council Committee on the Ethics of Animal Experiments. Non-small-cell lung (LXFL529) and renal (RXF2667) PDX mouse models comprised six groups each with 10 animals. Tumor fragments (3–4 mm edge length) were transplanted, and tumor growth was monitored until a median size of about 120–150 mm^3 was achieved. […] Both experiments were terminated after a three-week recovery phase on day 63. Animals were monitored at least twice daily on working days and at least once daily on weekends (tumor size and body weight measurement). Colon (CXF2068) and triple-negative breast cancer (TNBC) (MAXF BR120) PDX mouse models were performed as described above with changes in schedule. […] The statistical significance of antitumor efficacy was analyzed by the non-parametric Kruskal–Wallis test, followed by Dunn’s method for multiple comparisons using GraphPad Prism bioanalytic software (version 9.10), with p < 0.05 as significant. Additionally, a nonpaired t-test was performed using GraphPad Prism (version 9.10).
# MA4296 = test: Orthotopic TNBC PDX model MA4296; type: in vivo, mouse; settings: orthotopic TNBC PDX models, both schedules
# Description: Two orthotopic TNBC PDX mouse models were performed. Tumor cells were inoculated into the mammary fat pad of mice. Therefore, the mice were anesthetized shortly before surgery. After disinfection of the skin, mice received a small incision in the skin between the 4th and 5th dug. Each mouse was implanted with 2.5 × 10^6 (MA4296) or 5 × 10^6 (MA15191) cells. Treatment started on day 20 after inoculation, when palpable tumor sizes reached 127 mm^3 (day 33 for MA15191). […] Tumors were measured twice weekly with calipers, and their volume was calculated with the following formula: (length × width^2)/2. The body weight was also determined two times weekly. Reasons for termination were tumor size > 1.5 cm^3 or poor general condition. At the end of the study, tissue sampling for IHC and PCR analyses was performed. The statistical analysis was performed using mixed-effect analysis with Tukey’s multiple comparisons test (GraphPad Prism 8.4.2) to calculate significance in tumor growth inhibition between vehicle and treatment groups over time. The Kruskal–Wallis test was used to determine significance at study days 43 and 47. Additionally, the unpaired t-test was performed.
# NCI-H292 = test: In vitro proliferation (MTT) assay in presence and absence of NE, NCI-H292; type: cell-based; settings: Homo sapiens, 72 h
# Description: (§1) The in vitro cytotoxicity was evaluated in cancer cell lines NCI-H292 and LoVo after a 72-h continuous exposure to the presence or absence of 20 nM NE using MTT assays (ATCC, Manassas, VA, USA). IC50 values were determined as the concentration of compound required for 50% inhibition of cell viability.
# LoVo = test: In vitro proliferation (MTT) assay in presence and absence of NE, LoVo; type: cell-based; settings: Homo sapiens, 72 h
# Description: as §1
# [2] = payload 1 dosed directly 1 mg/kg IV, 786-O tumor-bearing mice, cited from earlier work
SMILES,half-life [1] [min],Km (human NE; enzyme concentration 0.5 nmol) [µM],Km (human NE; enzyme concentration 1.0 nmol) [µM],Tolerability (weight loss) (LXFL529),Tolerability (MA4296),"pIC50 (NCI-H292; absence of hNE, read-out: NCI H292 IC50)","pIC50 (NCI-H292; presence of 20 nM hNE, read-out: NCI H292 + hNE IC50)","pIC50 (LoVo; absence of hNE, read-out: LoVo IC50)","pIC50 (LoVo; presence of 20 nM hNE, read-out: LoVo + hNE IC50)",AUCplasma of payload 1 (VIP126) [2] [µg·h/L],AUCtumor of payload 1 (VIP126) [2] [µg·h/L],AUCtumor/AUCplasma of payload 1 (VIP126) [2],AUCtumor/AUCplasma of payload 1 (VIP126) ([2]; listed as Payload 1 (VIP126))
CCCNC(=O)Nc1cccc(S(=O)(=O)Nc2cccc([C@H](CC(=O)O)NC(=O)Nc3ccc(NC(=O)NCCOCCOCCOCCC(=O)N[C@@H](CC(=O)O)C(=O)N4CCC[C@H]4C(=O)N[C@H](C(=O)O[C@]4(CC)C(=O)OCc5c4cc4n(c5=O)Cc5c-4nc4ccccc4c5CC)C(C)C)cc3)c2)c1 [8e2],78,–,–,–,–,–,–,–,–,–,–,–,–
CCCNC(=O)Nc1cccc(S(=O)(=O)Nc2cccc([C@@H](CC(=O)O)NC(=O)Nc3ccc(NC(=O)NCCOCCOCCOCCC(=O)N[C@@H](CC(=O)O)C(=O)N4CCC[C@H]4C(=O)N[C@H](C(=O)O[C@]4(CC)C(=O)OCc5c4cc4n(c5=O)Cc5c-4nc4ccccc4c5CC)C(C)C)cc3)c2)c1 [VIP236],48.4,9.4,9.6,well tolerated,well tolerated,–,–,–,–,–,–,–,–
"CCc1c2c(nc3ccccc13)-c1cc3c(c(=O)n1C2)COC(=O)[C@]3(O)CC [compound 1, 7-ethyl camptothecin]",–,–,–,–,–,8.81,8.87,8.72,8.73,301,185,0.61,0.616
